According to patent publication US20250255923A1, “METHODS FOR EXTRACTING MELATONIN AND COMPOSITIONS THEREOF” (priority 2023, published 2025):

Assays:
Type in all cases: in vivo
mice [1] = experiment: Sleep induced by sub-threshold dose of pentobarbital sodium in mice; details: pentobarbital sodium 25 mg/kg 60 min after last dose, twice daily for three days, Diazepam 20 mg/kg BW, Tomato Extract 3 mg/kg BW (melatonin content), Synthesized Melatonin 5 mg/kg BW; for Number of Mice that Fell Asleep: 10 mice, within 30 minutes
mice [2] = experiment: Sleep induced by over-threshold dose of pentobarbital sodium in mice; details: pentobarbital sodium 40 mg/kg 60 min after last dose, twice daily for three days, Diazepam 20 mg/kg BW, Tomato Extract 3 mg/kg BW (melatonin content), Synthesized Melatonin 5 mg/kg BW; for Number of Mice that Fell Asleep: 10 mice, within 30 minutes
mice [3] = experiment: Threshold dose experiment of pentobarbital sodium (sleep rate within 30 minutes post-injection); details: for Sleep Rate (%) / Number of Mice that Fell Asleep: within 30 minutes; for Number of Mice that Fell Asleep: 10 mice
Experimental: Threshold Dose Experiment of Pentobarbital Sodium: A total of 40 mice were randomly divided into four groups, with 10 mice in each group. Each group received an intraperitoneal injection of pentobarbital sodium at the following doses: 25 mg/kg bodyweight (BW), 30 mg/kg BW, 35 mg/kg BW, and 40 mg/kg BW. The sleep rates of the mice were recorded within 30 minutes post-injection.
Based on the experimental results, it appears that the lower threshold dose of pentobarbital sodium is 25 mg/kg BW (“sub-threshold dose”). Based on the experimental results, it appears that the upper threshold dose of pentobarbital sodium is 40 mg/kg BW (“over-threshold dose”). The lower threshold was used for subsequent studies.

[4] = mice, intraperitoneal, sleep within 30 minutes

## COc1ccc2[nH]cc(CCNC(C)=O)c2c1 [Chemically Synthesized Melatonin, N-acetyl-5-methoxytruptamine]
Mice [1]
  Sleep Latency: 6.33 min
  Sleep Rate (%): 100%
  Total Sleep Duration: 21.56 min
  Number of Mice that Fell Asleep: 10
Mice [2]
  Sleep Latency: 4.53 min
  Sleep Rate (%): 100%
  Total Sleep Duration: 62.56 min
  Number of Mice that Fell Asleep: 10

## CN1C(=O)CN=C(c2ccccc2)c2cc(Cl)ccc21 [Diazepam]
Mice [1]
  Sleep Latency: 7.89 min
  Sleep Rate (%): 100%
  Total Sleep Duration: 19.23 min
  Number of Mice that Fell Asleep: 10
Mice [2]
  Sleep Latency: 5.13 min
  Sleep Rate (%): 100%
  Total Sleep Duration: 58.23 min
  Number of Mice that Fell Asleep: 10

## CCCC(C)C1(CC)C(=O)NC(=O)NC1=O (stereo not shown) [Pentobarbital Sodium, pentobarbital sodium]
Mice [3]; 25 mg/kg BW intraperitoneal
  Sleep Rate (%): 10%
  Number of Mice that Fell Asleep: 1
Mice [3]; 30 mg/kg BW intraperitoneal
  Sleep Rate (%): 50%
  Number of Mice that Fell Asleep: 5
Mice [3]; 35 mg/kg BW intraperitoneal
  Sleep Rate (%): 80%
  Number of Mice that Fell Asleep: 8
Mice [3]; 40 mg/kg BW intraperitoneal
  Sleep Rate (%): 100%
  Number of Mice that Fell Asleep: 10
Mice [3]; [4]
  lower threshold dose (sub-threshold dose): 25 mg/kg BW
  upper threshold dose (over-threshold dose): 40 mg/kg BW
Mice [1]
  Sleep Latency: 12.37 min
  Sleep Rate (%): 10%
  Total Sleep Duration: 11.50 min
  Number of Mice that Fell Asleep: 1
Mice [2]
  Sleep Latency: 12.69 min
  Sleep Rate (%): 100%
  Total Sleep Duration: 13.50 min
  Number of Mice that Fell Asleep: 10
